Measured values as given in ChEMBL document CHEMBL1122119.

Assays:
[1] = biological target: T1, Adenylate cyclase (Rattus norvegicus) (UniProt D4A3N4+P26770+Q04400+P26769+Q03343+P40146+Q8CFM9+P21932); assay: Ability (250 uM) to stimulate dopamine sensitive adenylate cyclase from rat corpus striatum in the presence of excess ATP; assay type: functional
[2] = biological target: T1, Adenylate cyclase (Rattus norvegicus); assay: Ability (50 uM) to stimulate dopamine sensitive adenylate cyclase from rat corpus striatum in the presence of excess ATP; assay type: functional

| Compound | Cyclase stimulation [1] [%] | Cyclase stimulation [2] [%] |
| --- | --- | --- |
| CN1CCc2cc(O)cc3c2[C@H]1Cc1ccc(O)c(O)c1-3 | 59 | – |
| CN1CCc2cccc3c2[C@H]1Cc1ccc(O)c(O)c1-3 | – | 48 |
| NCCc1ccc(O)c(O)c1 | – | 58 |
| CN1CCc2cc(O)cc3c2[C@@H]1Cc1ccc(O)c(O)c1-3 | 9 | – |
